Columns and labels:
Type in all cases: in vivo
[1] = system: Pythium aphanadermatum; test: Pythium control on coated cotton seeds; settings: 168 h; for pest or weed control at 2000 mg/kg: 2 gm/kg seed, 1 week
Text: Several compounds of the previous examples were incorporated into a proprietary formulation and used to coat cotton seeds at a rate of 2 gm/kg seed. After being thoroughly coated, the seeds were allowed to air dry at room temperature. The cotton seeds were then planted into soil amended with the fungus Pythium aphanadermatum, sand, and corn meal at a rate sufficient to kill most untreated seeds. The seeds were held at room temperature for 1 week, after which time disease ratings were made.

[2] = system: Venturia inaequalis; test: apple scab control on apple seedlings; settings: Venturia inaequalis; 100 ppm
Experimental: Compounds of this invention were dissolved in acetone in an amount equal to 6% of the final volume and then suspended at a concentration of 100 ppm in purified water containing 250 ppm of the surfactant TREM 014 (polyhydric alcohol esters). This suspension was sprayed to the point of run-off on apple seedlings. The following day, the plants were inoculated with a spore suspension of the fungus Venturia inaequalis, causal agent of apple scab, and incubated in a saturated humidity chamber at 20° for 24 hours and then in a growth room for an additional 10-12 days. Treated plants from successful treatments had few or no apple scab lesions when compared to untreated plants which were covered with scab lesions.

[3] = system: Helminthosporium maydis; test: southern corn leaf blight control on corn seedlings; settings: Bipolaris maydis, 168 h
Experimental: Compounds of the previous example were again dissolved in acetone in an amount equal to 6% of the final volume and then suspended at a concentration of 100 ppm in purified water containing 250 ppm of the surfactant TREM 014 (polyhydric alcohol esters). This suspension was sprayed to the point of run-off on corn seedlings. The following day, the plants were inoculated with a spore suspension of Helminthosporium maydis, causal agent of southern corn leaf blight, and incubated in a saturated humidity chamber at 20° for 24 hours and then in a growth room for an additional 7 days, when disease ratings were made. Treated plants from successful treatments had few lesions while the untreated plants had numerous lesions on each leaf.

[4] = system: Puccinia recondita var. tritici; test: wheat leaf rust control on wheat seedlings; settings: 100 ppm, sprayed day before inoculation
Experimental: Compounds of this invention were dissolved in acetone in an amount equal to 6% of the final volume and then suspended at a concentration of 100 ppm in purified water containing 250 ppm of the surfactant TREM 014 (polyhydric alcohol esters). This suspension was sprayed to the point of run-off on wheat seedlings. The following day, the plants were inoculated with a spore suspension of Puccinia recondita var. tritici, causal agent of wheat leaf rust, and incubated in a saturated humidity chamber at 20° for 24 hours and then in a growth room for an additional 7 days, when disease ratings were made. Treated plants from successful treatments had few or no rust pustules while the untreated plants had numerous rust pustules on each leaf.

[5] = system: Pythium aphanadermatum; test: Pythium control on coated corn seeds; settings: 504 h, 2 gm/kg seed, 49° F. 2 weeks then 70° F. 1 week
Experimental: Several compounds of the previous examples were incorporated into a proprietary formulation and used to coat corn seeds at a rate of 2 gm/kg seed. After being thoroughly coated, the seeds were allowed to air dry at room temperature. The seeds were then planted into soil amended with a mixture of the fungus Pythium aphanadermatum, sand, and corn meal at a rate sufficient to kill most untreated seeds. The seeds were held at 49° F. for 2 weeks and then at 70° F. for 1 additional week. After this time disease ratings were made.

[6] = system: Phytophthora infestans; test: whole plant or invertebrate; settings: Phytophthora infestans, in Solanum lycopersicum, 168 h, read-out: % Control of Tomato Late Blight
[7] = system: Cercospora arachidicola; test: peanut early leafspot control on peanut seedlings; settings: Mycosphaerella arachidis, 336 h
Experimental: Compounds of the previous examples were again dissolved in acetone in an amount equal to 6% of the final volume and then suspended at a concentration of 100 ppm in purified water containing 250 ppm of the surfactant TREM 014 (polyhydric alcohol esters). This suspension was sprayed to the point of run-off on peanut seedlings. The following day, the plants were inoculated with a spore suspension of Cercospora arachidicola, causal agent of peanut early leafspot, and incubated in a saturated humidity chamber at 27° for 24 hours and then in a growth room for an additional 14 days, when disease ratings were made. Treated plants from successful treatments had few or no leafspots while the untreated plants had numerous leafspots on each leaf.

[8] = system: Erysiphe cichoracearum; test: cucumber powdery mildew control on cucumber seedlings; settings: Golovinomyces cichoracearum, 168 h, 7 days
Experimental: (§1) Compounds of the previous examples were again dissolved in acetone in an amount equal to 6% of the final volume and then suspended at a concentration of 100 ppm in purified water containing 250 ppm of the surfactant TREM 014 (polyhydric alcohol esters). This suspension was sprayed to the point of run-off on cucumber seedlings. The following day, the plants were inoculated with a spore suspension of the fungus Erysiphe cichoracearum, causal agent of cucumber powdery mildew, and incubated in a growth room for 7 days. Disease ratings were then made. Treated plants from successful treatments had little or no powdery mildew in contrast to untreated plants which were covered with powdery mildew.

[9] = system: Rhizoctonia solani; test: rice sheath blight control on rice seedlings; settings: Rhizoctonia solani, 168 h, 7 days
Experimental: Several compounds of the previous examples were again dissolved in acetone in an amount equal to 6% of the final volume and then suspended at a concentration of 100 ppm in purified water containing 250 ppm of the surfactant TREM 014 (polyhydric alcohol esters). This suspension was sprayed to the point of run-off on rice seedlings. The following day, the plants were inoculated with a mixture of bran and the mycelium of Rhizoctonia solani, causal agent of sheath blight of rice, and incubated in a growth room for 7 days. Disease ratings were then made. Treated plants from successful treatments had little sheath blight in contrast to untreated plants which were covered with sheath blight.

[10] = system: Pyricularia oryzae; test: whole plant or invertebrate; settings: 168 h, read-out: % Control of Rice Blast
[11] = system: cucumber seedlings; test: phytotoxicity on cucumber seedlings; set-up: key: G: growth reduction; H: hormonal effects; settings: 100 ppm
[12] = system: Erysiphe graminis; test: barley powdery mildew control on barley seedlings; settings: Blumeria graminis, 168 h; 100 ppm, 7 days
Experimental: as §1, with “Several compounds” for “Compounds”, “barley” for “cucumber”, “graminis,” for “cichoracearum,”, “plants” for “plants from successful treatments”

SMILES | pest or weed control at 2000 mg/kg [1] | pest or weed control at 100 ppm [2] | pest or weed control at 100 ppm [3] | pest or weed control at 100 ppm [4] | pest or weed control at 2000 mg/kg [5] | pest or weed control at 100 ppm [6] | pest or weed control at 100 ppm [7] | pest or weed control at 100 ppm [8] | pest or weed control at 100 ppm [9] | pest or weed control at 100 ppm [10] | Phytotoxicity (growth reduction or hormonal effects) [11] | pest or weed control at 100 ppm [12] | pest or weed control at 500 mg/kg ([1]; 0.5 gm/kg seed)
CCCC[Si](C)(Cn1ccnc1)c1ccc(-c2ccccc2)cc1 (stereo not shown) [(1,1'-Biphenyl-4-yl)butyl(1H-imidazol-1-ylmethyl)methylsilane] | 0% | 100% | 0% | 100% | 0% | 0% | 90% | 100% | 90% | 90% | – | – | –
COc1ccccc1[Si](C)(C)Cn1ccnc1 [(1H-Imidazol-1-ylmethyl)(2-methoxyphenyl)dimethylsilane] | – | 60% | 0% | 0% | – | 0% | 0% | 100% | 90% | 0% | G | – | –
C[Si](C)(Cn1ccnc1)c1cccc2ccccc12 [(1H-Imidazol-1-ylmethyl)dimethyl(1-naphthalenyl)silane] | – | 40% | 0% | 0% | 27% | 0% | 0% | 100% | 0% | 0% | – | 0% | –
C[Si](C)(Cn1ccnc1)c1ccccc1C(F)(F)F [(1H-Imidazol-1-ylmethyl)dimethyl(2-trifluoromethylphenyl)silane] | – | 0% | 90% | 0% | – | 0% | 0% | 100% | 80% | 0% | G | – | –
Cc1ccc([Si](C)(C)Cn2ccnc2)cc1 [(1H-Imidazol-1-ylmethyl)dimethyl(4-methylphenyl)silane] | 0% | 0% | 0% | 0% | 30% | 0% | 0% | 100% | 0% | 0% | G | – | –
C[Si](C)(Cn1ccnc1)c1ccccc1Cl [(2-Chlorophenyl)(1H-imidazol-1-ylmethyl)dimethylsilane] | 0% | 90% | 0% | 0% | – | 0% | 80% | 100% | 0% | 0% | – | – | –
C[Si](C)(Cn1ccnc1)c1cc(Cl)cc(Cl)c1 [(3,5-Dichlorophenyl)dimethyl(1H-imidazol-1-ylmethyl)silane] | – | 50% | 0% | 0% | – | 0% | 0% | 100% | 90% | 0% | G | – | –
C[Si](C)(Cn1ccnc1)c1ccc(Cl)cc1 [(4-Chlorophenyl)dimethyl(1H-imidazol-1-ylmethyl)silane] | – | 0% | 0% | 50% | 25% | 0% | 0% | 100% | 0% | 0% | – | – | 18%
CCCC[Si](C)(Cn1ccnc1)c1ccc(F)cc1 (stereo not shown) [Butyl(4-fluorophenyl)(1H-imidazol-1-ylmethyl)methylsilane] | 0% | 80% | 0% | 0% | 0% | 0% | 0% | 100% | 80% | 100% | – | – | –
C[Si](C)(Cn1ccnc1)c1cccc(C(F)(F)F)c1 [Dimethyl(1H-imidazol-1-ylmethyl)(3-trifluoromethylphenyl)silane] | 0% | 0% | 0% | 0% | 0% | 70% | 50% | 80% | 0% | 0% | – | – | –
C[Si](C)(Cn1ccnc1)c1ccc(OC(F)(F)F)cc1 [Dimethyl(1H-imidazol-1-ylmethyl)(4-trifluoromethoxyphenyl)silane] | – | 50% | 0% | 100% | – | 0% | 90% | 100% | 0% | 90% | G | – | –
C[Si](Cn1ccnc1)(c1ccc(Cl)cc1)c1ccc(Cl)cc1 [bis(4-Chlorophenyl)(1H-imidazol-1-ylmethyl)methylsilane] | – | 0% | 60% | 0% | – | 0% | 0% | 100% | 0% | 0% | – | 100% | –

— patent US4496551A (priority 1983, dated 1985)
